Literature values as cited in patent publication US20070149409A1, “Pesticide formulations with substituted biopolymers and organic polymers for improving residual activity, droplet size, adherence and rainfastness on leaves and reduction in soil leaching” (priority 2003, published 2007).

Molecule	pK / pKa
CCCC(Cn1cncn1)c1ccc(Cl)cc1Cl (centres unmarked) [penconazole]	1.5
CCCOC(=O)NCCCN(C)C [propamocarb]	4.9
Nc1nc[nH]n1 [Amitrole]	9.8
Indole acetic acid	4.7
CP(=O)(O)CCC(N)C(=O)O (centres unmarked) [glufosinate]	9.8
